# Marks after values point to notes of the source that are not given here.
# Key:
# [1] = tested on: human ovarian tumour cell line A2780; assay: growth (tetrazolium dye-based microtitration) cytotoxicity assay, A2780; assay type: cell-based
# Protocol: (§1) Compounds were tested in a growth assay with a 24 hours drug exposure and a 3 day recovery period. Cell lines used were human ovarian tumour cell line A2780 and 2 Cisplatin resistant derivatives cell lines A27080/cp70 and MCP1. IC50 is the concentration of drug required to reduce the surviving cell number to 50% of that of the control untreated cells. Results are from one experiment and are the mean±SEM of the triplicate plates.
# (§2) DIP cytotoxicity was determined by a tetrazolium dye-based microtitration assay. DNA affinity measurements of DIPs were undertaken using Isothermal Titration Calorimetry (ITC).
# Calf DNA = assay: DNA affinity by Isothermal Titration Calorimetry (ITC), Calf DNA; assay type: binding
# Protocol: as §2
# [2] = tested on: Cisplatin resistant cell line MCP1; assay: growth (tetrazolium dye-based microtitration) cytotoxicity assay, MCP1; assay type: cell-based, human
# Protocol: as §1, §2
# Salmon DNA = assay: DNA affinity by Isothermal Titration Calorimetry (ITC), Salmon DNA; assay type: binding
# Protocol: as §2
# DNA = assay: Viscosimetry analysis (DNA intercalation); details: preliminary result
# [3] = tested on: Cisplatin resistant cell line A2780/cp70; assay: growth (tetrazolium dye-based microtitration) cytotoxicity assay, A2780/cp70; assay type: cell-based, human
# Protocol: as §1, §2
smiles,measurement,setting,value
"c1ccc2c(c1)c1[n+](c3ccccc23)CCN1 [AP5-94, 2,3-Dihydro-1H-imidazo[1,2-f]phenanthridin-4-ylium bromide]",cytotoxicity on cisplatin-sensitive cell line A2780 (in words),[1],high cytotoxicity
same,IC50,"[1]; Homo sapiens, A2780, cisplatin-sensitive line, 24 hours drug exposure, 3 day recovery, mean±SEM of triplicate plates",1.56 ± 0.18 µM
same,Ka Calf DNA,Calf DNA,2.06 ± 907 M^−1 (10^4)
same,more active on MCP1 than A2780,[2],50%
same,IC50,"[2]; Homo sapiens, cisplatin-resistant line, 24 hours drug exposure, 3 day recovery, mean±SEM of triplicate plates",0.82 ± 0.09 µM
same,RF2,"[2]; rapport of the IC50 between A2780 and MCP1, the lower RF the better",0.5
same,Ka Salmon DNA,Salmon DNA,2.56 ± 802.6 M^−1 (10^4)
same,viscosity of DNA (in words),DNA,increase of viscosity similar to the one obtained with the DNA intercalator reference ethidium bromide
same,less active on A2780/cp70 than on A2780,[3],50%
same,IC50,"[3]; Homo sapiens, A2780/CP70, cisplatin-resistant line, 24 hours drug exposure, 3 day recovery, mean±SEM of triplicate plates",2.3 ± 0.15 µM
same,RF1,"[3]; rapport of the IC50 between A2780 and A2780/cp70, the lower RF the better",1.5

# Reference: patent US7947703B2, “Phenanthridinium derivatives as DNA binding agents” (University Court of the University of Glasgow, priority 2003, dated 2011)
